Results taken from patent US9365588B2, “Benzoxazines as modulators of ion channels” (Vertex Pharmaceuticals Incorporated, priority 2011, dated 2016).

Molecular target: human NaV 1.7 (Homo sapiens, UniProt Q15858)
Test: E-VIPR optical membrane potential assay with electrical stimulation
Format: cell-based
Conditions: sodium channel inhibition; read-out: Binned Activity Data (IC50)
Summary of the method: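 Membrane-potential read-out: background-subtracted 460 nm/580 nm ratio during a 9 s current-controlled stimulus, 400 Hz scan. Before stimulation, NaV1.7-HEK cells carried coumarin/oxonol dye and compound (final DMSO 0.625%) for 20–35 min at room temperature; tetracaine 125 μM served as positive control.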

Sequence of human NaV 1.7 (Q15858 whole entry): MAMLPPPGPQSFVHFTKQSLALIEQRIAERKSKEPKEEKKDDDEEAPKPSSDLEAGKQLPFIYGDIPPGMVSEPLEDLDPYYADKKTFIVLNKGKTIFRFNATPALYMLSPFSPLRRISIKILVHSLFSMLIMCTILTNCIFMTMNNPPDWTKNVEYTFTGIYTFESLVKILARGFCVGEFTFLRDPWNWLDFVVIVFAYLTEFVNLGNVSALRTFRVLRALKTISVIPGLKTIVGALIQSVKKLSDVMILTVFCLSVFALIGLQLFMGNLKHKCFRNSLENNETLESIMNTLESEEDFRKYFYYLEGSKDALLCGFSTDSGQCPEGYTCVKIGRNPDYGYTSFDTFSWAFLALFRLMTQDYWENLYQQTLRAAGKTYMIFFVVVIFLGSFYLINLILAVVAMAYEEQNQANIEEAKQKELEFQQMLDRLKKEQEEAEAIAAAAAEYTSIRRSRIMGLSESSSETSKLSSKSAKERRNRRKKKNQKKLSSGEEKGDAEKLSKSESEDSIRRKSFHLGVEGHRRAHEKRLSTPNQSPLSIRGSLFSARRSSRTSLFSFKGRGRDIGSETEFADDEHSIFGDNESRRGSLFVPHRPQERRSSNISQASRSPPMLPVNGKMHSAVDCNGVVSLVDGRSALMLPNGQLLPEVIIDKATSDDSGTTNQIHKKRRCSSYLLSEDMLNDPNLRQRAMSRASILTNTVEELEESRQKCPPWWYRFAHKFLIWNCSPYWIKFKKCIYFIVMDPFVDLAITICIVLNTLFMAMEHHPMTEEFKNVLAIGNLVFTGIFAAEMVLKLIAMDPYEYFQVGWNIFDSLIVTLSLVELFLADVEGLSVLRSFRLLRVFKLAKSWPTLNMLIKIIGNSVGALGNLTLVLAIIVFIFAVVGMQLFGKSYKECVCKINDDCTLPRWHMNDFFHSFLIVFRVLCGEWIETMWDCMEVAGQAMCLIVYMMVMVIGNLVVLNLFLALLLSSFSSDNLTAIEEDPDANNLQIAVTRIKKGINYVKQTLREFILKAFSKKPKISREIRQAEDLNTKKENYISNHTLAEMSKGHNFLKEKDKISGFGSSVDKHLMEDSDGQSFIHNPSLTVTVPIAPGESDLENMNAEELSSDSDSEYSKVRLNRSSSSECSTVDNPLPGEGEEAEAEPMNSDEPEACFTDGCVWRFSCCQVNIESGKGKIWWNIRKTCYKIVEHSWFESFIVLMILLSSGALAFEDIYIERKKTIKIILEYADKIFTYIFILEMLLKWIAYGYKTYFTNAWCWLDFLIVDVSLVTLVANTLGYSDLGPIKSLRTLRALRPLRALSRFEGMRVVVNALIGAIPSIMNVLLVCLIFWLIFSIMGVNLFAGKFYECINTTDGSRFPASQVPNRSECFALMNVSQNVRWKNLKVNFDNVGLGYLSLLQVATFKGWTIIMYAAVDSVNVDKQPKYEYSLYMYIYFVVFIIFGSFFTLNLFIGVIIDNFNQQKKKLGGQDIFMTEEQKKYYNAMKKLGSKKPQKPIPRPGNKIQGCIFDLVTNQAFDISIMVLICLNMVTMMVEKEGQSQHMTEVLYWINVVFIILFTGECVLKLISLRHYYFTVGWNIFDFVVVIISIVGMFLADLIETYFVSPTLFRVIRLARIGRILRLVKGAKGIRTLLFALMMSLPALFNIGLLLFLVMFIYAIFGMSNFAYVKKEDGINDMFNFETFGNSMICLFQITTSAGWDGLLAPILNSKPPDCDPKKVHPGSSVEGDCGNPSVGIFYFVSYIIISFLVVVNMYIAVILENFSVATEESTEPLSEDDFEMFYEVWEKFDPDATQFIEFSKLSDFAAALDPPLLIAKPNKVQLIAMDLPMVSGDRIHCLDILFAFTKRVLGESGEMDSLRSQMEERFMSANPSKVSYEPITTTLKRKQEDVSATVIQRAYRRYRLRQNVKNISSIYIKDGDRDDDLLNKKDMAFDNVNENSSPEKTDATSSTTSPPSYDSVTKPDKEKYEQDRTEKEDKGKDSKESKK

In the case of COc1c(F)cccc1C(=O)N1CCC2(CC1)Oc1ccccc1-c1c2cnn1C(C)C [Compound 544], the IC50 is reported as no more than 2000 nM.
CCc1ccccc1C(=O)N1CCC2(CC1)Oc1ccccc1-c1c2cnn1C [Compound 546] gave an IC50 of no more than 2000 nM.
Work on Cc1cc(C(=O)N2CCC3(CC2)Oc2cc(Cl)ccc2-n2cccc23)ccc1OCC1CCCO1 (stereo not drawn) [Compound 547] yielded an IC50 of no more than 2000 nM.
Cc1cc(C#N)n2c1C1(CCN(C(=O)c3ccc(S(=O)(=O)C(C)C)cc3)CC1)Oc1ccccc1-2 [Compound 549] gave an IC50 of no more than 2000 nM.
Cn1ncc2c1-c1ccccc1OC21CCN(C(=O)c2cnn(-c3ccccc3)c2C(F)(F)F)CC1 [Compound 550] was tested, and the IC50 was 2000 to 5000 nM.
O=C(c1ccnc(N2CCCCC2)c1)N1CCC2(CC1)Oc1ccccc1-n1cccc12 [Compound 551] showed an IC50 of no more than 2000 nM.
COCCn1ccc(C(=O)N2CCC3(CC2)Oc2cc(Cl)ccc2-n2cccc23)cc1=O [Compound 552] gave an IC50 of no more than 2000 nM.
Compound COc1cc(C(=O)N2CCC3(CC2)Oc2ccccc2-c2[nH]ncc23)ccc1OC(C)(C)C [Compound 553] has an IC50 of 2000 to 5000 nM.
Compound Cc1cc(C(=O)N2CCC3(CC2)Oc2ccccc2-n2c3ccc2S(C)(=O)=O)ccc1OC(C)C [Compound 554] has an IC50 of no more than 2000 nM.
CCc1ccc(C(=O)N2C3CCC2CC2(C3)Oc3ccccc3-n3cccc32)cc1OC (stereo not drawn) [Compound 555] showed an IC50 of no more than 2000 nM.
O=C(c1ccc2[nH]ncc2c1)N1CCC2(CC1)Oc1ccccc1-n1c(C(F)(F)F)ccc12 [Compound 556] showed an IC50 of 2000 to 5000 nM.
Work on COc1cc(C(=O)N2CCC3(CC2)Oc2ccccc2-c2c3cnn2C)ccc1S(=O)(=O)C(C)(C)C [Compound 557] yielded an IC50 of no more than 2000 nM.
In the case of CNS(=O)(=O)c1ccc(C(=O)N2CCC3(CC2)Oc2ccccc2-n2c(C(F)(F)F)ccc23)cc1C [Compound 558], the IC50 is reported as no more than 2000 nM.
Compound CC(C)Oc1ccc(C(=O)N2CCC3(CC2)Oc2ccccc2-n2c(C#N)ccc23)cc1CO [Compound 559] has an IC50 of no more than 2000 nM.
COc1cc(F)c(C(=O)N2CCC3(CC2)Oc2cc(Cl)ccc2-n2cccc23)cc1OC [Compound 561] was tested, and the IC50 was no more than 2000 nM.
Cc1cc(C(=O)N2CCC3(CC2)Oc2ccccc2-n2cccc23)ccc1C#N [Compound 562] was tested, and the IC50 was no more than 2000 nM.
In the case of CCc1ccc(C(=O)N2CCC3(CC2)Oc2ccccc2-n2c(C(F)(F)F)ccc23)nc1 [Compound 564], the IC50 is reported as 2000 to 5000 nM.
In the case of Cc1ccc(C(=O)N2CCC3(CC2)Oc2ccccc2-n2c(C(F)(F)F)ccc23)nc1 [Compound 566], the IC50 is reported as greater than 5000 nM.
With COc1cc(C(=O)N2CCC3(CC2)Oc2cc(F)ccc2-n2cccc23)ccc1C(C)(C)OC [Compound 567] the IC50 was no more than 2000 nM.
Work on COc1ccc(C(=O)N2CCC3(CC2)Oc2ccccc2-c2c3ccn2C)cc1C(F)(F)F [Compound 568] yielded an IC50 of no more than 2000 nM.
Cn1ncc2c1-c1ccccc1OC21CCN(C(=O)c2ccc(OC3COC3)c(F)c2)CC1 [Compound 569] showed an IC50 greater than 5000 nM.
Compound COc1cc(C(=O)N2CCC3(CC2)Oc2ccccc2-n2cccc23)ccc1OC(C)(C)C#N [Compound 570] has an IC50 of no more than 2000 nM.
For C[C@](O)(CO)c1ccc(C(=O)N2CCC3(CC2)Oc2ccccc2-n2c(C#N)ccc23)cc1 [Compound 571], the IC50 was no more than 2000 nM.
CC(C)(O)c1ccc(C(=O)N2CCC3(CC2)Oc2ccccc2-n2c(C(F)(F)F)ccc23)cc1CO [Compound 572] gave an IC50 of 2000 to 5000 nM.
Compound COc1cc(C(=O)N2CCC3(CC2)Oc2ccccc2-n2cccc23)ccc1C(C)(C)C [Compound 573] has an IC50 of no more than 2000 nM.
COc1cc(C(F)(F)F)ccc1C(=O)N1CCC2(CC1)Oc1ccccc1-c1c2cnn1C [Compound 574] showed an IC50 of no more than 2000 nM.
COc1cc(OC)c(C(=O)N2CCC3(CC2)Oc2cc(Cl)ccc2-n2cccc23)cc1CO [Compound 576] showed an IC50 of no more than 2000 nM.
In the case of COc1ccc(C(=O)N2CCC3(CC2)Oc2cc(Cl)ccc2-n2cccc23)c(OC)c1 [Compound 578], the IC50 is reported as no more than 2000 nM.
Compound CC(C)S(=O)(=O)c1ccc(C(=O)N2CCC3(CC2)Oc2ccccc2-n2cccc23)cc1 [Compound 579] has an IC50 of no more than 2000 nM.
Work on CC(C)NS(=O)(=O)c1ccc(C(=O)N2CCC3(CC2)Oc2ccc(F)cc2-c2nn(C)cc23)cc1 [Compound 580] yielded an IC50 of no more than 2000 nM.
For CC(C)Oc1ccc(C(=O)N2CCC3(CC2)Oc2ccccc2-c2c3cnn2C)c(Cl)c1 [Compound 581], the IC50 was no more than 2000 nM.
CCn1ncc2c1-c1ccccc1OC21CCN(C(=O)c2ccc(S(C)(=O)=O)c(C)c2)CC1 [Compound 582] was tested, and the IC50 was no more than 2000 nM.
In the case of Cc1cc(C(=O)N2CCC3(CC2)Oc2ccccc2-c2c3ncn2C)ccc1OC(C)C [Compound 583], the IC50 is reported as no more than 2000 nM.
For COc1cc(C(=O)N2CCC3(CC2)Oc2ccccc2-n2cccc23)ccc1OCC(=O)O [Compound 585], the IC50 was 2000 to 5000 nM.
With COc1cc(C(=O)N2CCC3(CC2)Oc2ccccc2-c2c3cnn2C)ccc1S(=O)(=O)C(C)C [Compound 586] the IC50 was greater than 5000 nM.
For COCCOc1ccc(C(=O)N2CCC3(CC2)Oc2ccccc2-c2c3cnn2C)cc1Cl [Compound 587], the IC50 was no more than 2000 nM.
Work on COc1cc(C(=O)N2CCC3(CC2)Oc2cc(F)ccc2-n2cccc23)ccc1OC[C@@H](O)CO [Compound 588] yielded an IC50 of no more than 2000 nM.
COc1cc(C(=O)N2CCC3(CC2)Oc2ccccc2-c2nn(CC(F)(F)F)cc23)ccc1OCCC(C)C [Compound 589] gave an IC50 of no more than 2000 nM.
CCNS(=O)(=O)c1ccc(C(=O)N2CCC3(CC2)Oc2ccccc2-n2c(C(F)(F)F)ccc23)cc1 [Compound 590] was tested, and the IC50 was no more than 2000 nM.
Compound COc1cc(C(=O)N2CCC3(CC2)Oc2cc(F)ccc2-n2cccc23)ccc1O[C@H]1CCOC1 [Compound 592] has an IC50 of no more than 2000 nM.
With Cn1ncc2c1-c1ccccc1OC21CCN(C(=O)c2ccccc2OCC(F)(F)F)CC1 [Compound 593] the IC50 was no more than 2000 nM.
With CC(C)n1ncc2c1-c1ccccc1OC21CCN(C(=O)c2ccc(S(=O)(=O)C(C)C)cc2)CC1 [Compound 594] the IC50 was no more than 2000 nM.
Work on Cn1cc2c(n1)-c1ccccc1OC21CCN(C(=O)c2ccc3[nH]ncc3c2)CC1 [Compound 595] yielded an IC50 of no more than 2000 nM.
For COCCOc1ccc(C(=O)N2CCC3(CC2)Oc2ccccc2-n2c(C)ccc23)cc1OC [Compound 596], the IC50 was no more than 2000 nM.
For Cn1cc2c(n1)-c1ccccc1OC21CCN(C(=O)c2ccc(CC(C)(C)O)cc2)CC1 [Compound 598], the IC50 was no more than 2000 nM.
CC(C)Oc1ccc(C(=O)N2CCC3(CC2)Oc2ccccc2-c2c3cnn2C)c(F)c1 [Compound 599] showed an IC50 of no more than 2000 nM.
In the case of Cn1ncc2c1-c1ccccc1OC21CCN(C(=O)c2cn(C)c3cccnc23)CC1 [Compound 600], the IC50 is reported as no more than 2000 nM.
For COc1ccc(-n2ncc(C(=O)N3CCC4(CC3)Oc3ccccc3-c3c4cnn3C)c2C)cc1 [Compound 601], the IC50 was no more than 2000 nM.
COc1cc(C(=O)N2CCC3(CC2)Oc2ccccc2-n2cccc23)ccc1OCCC(C)C [Compound 602] was tested, and the IC50 was no more than 2000 nM.
Compound COc1c(C)cccc1C(=O)N1CCC2(CC1)Oc1cc(Cl)ccc1-n1cccc12 [Compound 605] has an IC50 of no more than 2000 nM.
With CC(C)(O)c1ccc(C(=O)N2CCC3(CC2)Oc2ccccc2-n2c3ccc2S(C)(=O)=O)cc1 [Compound 607] the IC50 was 2000 to 5000 nM.
Cc1cccc(C(=O)N2CCC3(CC2)Oc2ccccc2-c2c3cnn2C)c1OC(C)C [Compound 608] showed an IC50 of no more than 2000 nM.
COc1cc(C(=O)N2CCC3(CC2)Oc2cc(Cl)ccc2-n2cccc23)ccc1C(C)CO (stereo not drawn) [Compound 609] was tested, and the IC50 was no more than 2000 nM.
Cc1cc(C(=O)N2CCC3(CC2)Oc2ccccc2-c2c3cnn2C)ccc1OC(C)(C)C [Compound 610] showed an IC50 of no more than 2000 nM.
Cc1nc2ccc(C(=O)N3CCC4(CC3)Oc3ccccc3-c3nn(C)cc34)cc2s1 [Compound 611] was tested, and the IC50 was no more than 2000 nM.
COc1cc(C(=O)N2CCC3(CC2)Oc2cc(F)ccc2-n2cccc23)ccc1C1(O)COC1 [Compound 612] was tested, and the IC50 was no more than 2000 nM.
In the case of CC(C)S(=O)(=O)c1ccc(C(=O)N2CCC3(CC2)Oc2ccccc2-c2c3cnn2C)cc1 [Compound 613], the IC50 is reported as no more than 2000 nM.
In the case of COc1cccc(F)c1C(=O)N1CCC2(CC1)Oc1ccccc1-n1c2ccc1S(C)(=O)=O [Compound 614], the IC50 is reported as 2000 to 5000 nM.
Compound COc1cc(C(=O)N2CCC3(CC2)Oc2cc(F)ccc2-c2c3cnn2C)ccc1OC(C)C [Compound 617] has an IC50 of no more than 2000 nM.
O=C(c1ccccc1OC(F)F)N1CCC2(CC1)Oc1ccccc1-n1c(C(F)(F)F)ccc12 [Compound 618] gave an IC50 of no more than 2000 nM.
Work on Cn1ncc2c1-c1ccccc1OC21CCN(C(=O)c2cccc(OC(F)(F)F)c2)CC1 [Compound 619] yielded an IC50 greater than 5000 nM.
COc1ccc(C(=O)N2CCC3(CC2)Oc2ccccc2-c2c3cnn2C)cc1OC [Compound 620] was tested, and the IC50 was no more than 2000 nM.
CC(C)S(=O)(=O)c1ccc(C(=O)N2CCC3(CC2)Oc2ccccc2-n2c(C(F)(F)F)ccc23)cc1 [Compound 621] was tested, and the IC50 was no more than 2000 nM.
COc1cc(C(C)(C)O)ccc1C(=O)N1CCC2(CC1)Oc1ccccc1-n1c(C#N)ccc12 [Compound 622] was tested, and the IC50 was no more than 2000 nM.
For Cn1ncc2c1-c1ccc(Cl)cc1OC21CCN(C(=O)c2ccccc2OC(F)F)CC1 [Compound 623], the IC50 was no more than 2000 nM.
Work on Cn1ncc2c1-c1ccccc1OC21CCN(C(=O)c2ccc(S(=O)(=O)C(F)F)cc2)CC1 [Compound 626] yielded an IC50 of no more than 2000 nM.
COc1cc(C)ccc1C(=O)N1CCC2(CC1)Oc1cc(Cl)ccc1-n1cccc12 [Compound 627] gave an IC50 of no more than 2000 nM.
In the case of COCCOc1cc(F)c(C(=O)N2CCC3(CC2)Oc2cc(Cl)ccc2-n2cccc23)cc1OC [Compound 628], the IC50 is reported as no more than 2000 nM.
CCCOc1ccc(C(=O)N2CCC3(CC2)Oc2cc(F)ccc2-n2cccc23)cc1C(F)(F)F [Compound 631] gave an IC50 of no more than 2000 nM.
COc1cc(C(=O)N2CCC3(CC2)Oc2cc(F)ccc2-n2cccc23)ccc1OCC1CCCO1 (stereo not drawn) [Compound 632] gave an IC50 of no more than 2000 nM.
Compound Cc1cc(C(C)(C)O)ccc1C(=O)N1CCC2(CC1)Oc1ccccc1-n1c(C#N)ccc12 [Compound 633] has an IC50 of no more than 2000 nM.
For COc1cc(C(=O)N2CCC3(CC2)Oc2cc(Cl)ccc2-n2cccc23)ccc1CCO [Compound 635], the IC50 was no more than 2000 nM.
With Cn1ncc2c1-c1ccccc1OC21CCN(C(=O)c2ccc(OC(F)(F)F)c(Cl)c2)CC1 [Compound 636] the IC50 was no more than 2000 nM.
With COc1cc(C(C)(C)O)ccc1C(=O)N1CCC2(CC1)Oc1ccccc1-c1c2cnn1C [Compound 637] the IC50 was no more than 2000 nM.
C[C@@](O)(CO)c1ccc(C(=O)N2CCC3(CC2)Oc2ccccc2-n2c(C(F)(F)F)ccc23)cc1 [Compound 640] gave an IC50 of no more than 2000 nM.
